Test results as given in US20220160779A1, “COMPOSITION FOR PROMOTING CARTILAGE TISSUE REGENERATION” (National University Corporation Tokyo Medical and Dental …, priority 2019, published 2022).

Columns and labels:
synovial MSCs [1] = assay: Proliferation assay of synovial MSCs with recombinant protein (MTT assay); assay type: cell-based, human; conditions: for effect of inhibitor on pro-proliferative activity of Activin A / cell count (MTT assay): 0.5% FBS + rh Activin A + inhibitor, FIG. 5E; for proliferation activation of MSCs (MTT assay): recombinant protein added to normal growth medium (10% FBS) up to 100 times the ED50, FIG. 3C
Method: Primary human synovial cells were isolated from the synovial tissues obtained from patients who underwent total knee arthroplasty (TKA), as described in Sekiya I. et al, Clin Orthop Relat Res, 2015, 473(7), pp. 2316 to 2326. That is, first, 0.5 to 1 mg of synovium obtained by incising the suprapatellar bursa was subjected to collagenase D treatment (Sigma, MO, USA, 3 hours at 37° C.) to disperse nucleated cells. Debris was removed by passing the cell dispersion through a 70 μm nylon mesh. Nucleated cells were seeded in a 15 cm dish at 5.7×10^2 cells/cm^2 and maintained and cultured in MEM-alpha medium supplemented with 10% FBS and antibiotics (Gibco, MA, USA) for 14 days. The cells were then separated from the dish in TripLE solution (Gibco) and seeded twice more in a new dish to obtain a sufficient cell count to be used in the experiments. Note that in all experiments, cells within 6 passages were used.
To evaluate the pro-proliferative activity of recombinant proteins (IL6, IL8, IL10, and Activin A), MTT assays were performed (see FIGS. 3C and 5C-E). Synovial MSCs were seeded to 1×10^3 cells/well in 96-well plates and cultured in 0.2 mL of normal growth medium 1 day before being subjected to recombinant protein treatment. On the following day, the medium was replaced with a fresh one (normal growth medium or medium with a reduced FBS concentration of 0.5% and recombinant protein added (10 times the concentration of ED50 or 100 times the concentration of ED50)). MTT assays were performed at days 0, 1, 3, 5, and 7 according to the method described in Denizot F. et al., J Immunol Methods, 1986, 89(2), pp. 271 to 277.
In addition, the present inventors tried to clarify the molecular mechanism of MSC proliferative activity by Activin A. It has been reported that the ERK and PI3K signal transduction pathways are activated for MSC proliferation (see Uomizu, M. et al, J Med Dent Sci., 2018, vol. 65, pp. 73 to 82). With the above in mind, Activin A (rh Activin A) was applied to synovial MSCs in the presence of PI3K-PKB/Akt and Erk1/Erk2, a specific inhibitor for each of these signal transduction pathways, and the cell count was measured by MTT assay.

synovial MSCs [2] = assay: In-vitro differentiation assay of MSCs (cartilage, bone, adipocytes); assay type: cell-based, human; conditions: added to chondrogenic differentiation medium, pellet culture 2 weeks; FIG. 6C
Method: In-vitro differentiation assays were performed according to the method described in Colter D C. et al, Proc Natl Acad Sci USA, 2001, 98, pp. 7841 to 7845.
To form chondrogenic spheroids, 2.5×10^5 cells were transferred into 15 mL polypropylene tubes (BD Biosciences) and subjected to centrifugation at 450×g for 10 minutes. Then, the cell pellets were cultured in chondrogenic medium containing 1000 ng/mL rhBMP-2 (Infuse Bone Graft; Medtronic, TN, USA), 10 ng/mL […], and 100 nM dexamethasone (Sigma-Aldrich, MO, USA) for 14 days.
For calcification, cells were cultured in normal growth medium supplemented with 1 nM dexamethasone, 20 mM β-glycerophosphate, and 50 μg/mL ascorbic acid-2-phosphate (Sigma-Aldrich) for 21 days. Calcified nodule formation was visualized by alizarin red staining (Sigma-Aldrich).
For adipogenesis, the cells were cultured for 21 days in MEM-alpha supplemented with 10% FBS, 100 nM dexamethasone (Sigma-Aldrich), 0.5 mM IBMX (isobutyl-1-methylxanthine; Sigma-Aldrich), and 50 μM indomethacin (Wako, Tokyo, Japan). The adipogenic cultures were immobilized and stained with Oil Red O solution (Sigma-Aldrich).

C57BL/6J mice = assay: Medial meniscus anterior 1/2 resection model; assay type: in vivo, mouse; conditions: intra-articular on day 7; 10 days after resection; FIG. 7A
Source text: Twenty male C57BL/6J mice (8 weeks old, weight: about 25 g) were used for this study (5 mice in each group. ORIENTAL YEAST Co., Ltd. Tokyo, Japan). After anesthesia by isoflurane inhalation, a straight incision was made in the left anterior knee, and the anterior central side of the joint capsule was cut. The patellar tendon was then dislocated laterally to expose the anterior corner of the medial meniscus (see Hiyama K. et al, J Orthop Res., 2017, 35(9), pp. 1958 to 1965). The anterior corner of the meniscus was cut and dislocated anteriorly using forceps. The medial meniscus was cut perpendicularly at the medial collateral ligament, and the anterior portion of the medial meniscus was resected in a microscopic operation using a surgical microscope. The skin was closed in layers with non-absorbable sutures. Note that the right knee was subjected to sham surgery. In addition, the mice were kept under a 12-hour light/dark cycle with free movement, free feeding, and drinking water.
Recombinant human Activin A (42 ng/6 μL in PBS) and/or rh PDGF-AA (174 ng/6 μL in PBS) was injected intra-articularly on postoperative day 7 (see Hoshino T. et al., BMC Musculoskelet Disord., 2018, 19(1): 291). […]
Tissue samples were fixed in 4% paraformaldehyde for 3 to 4 days and subjected to decalcification in 20% ethylenediaminetetraacetic acid (EDTA) solution for 21 days. Then, they were embedded in paraffin wax. The specimens were then cut to a 5 μm thickness in the sagittal plane and stained with safranin O/Fast Green or hematoxylin/eosin (H&E) to histologically evaluate meniscus regeneration.
A modified Pauli's score system was used to histologically quantify meniscus regeneration (see Hiyama K. et al, J Orthop Res. 2017, 35(9), pp. 1958 to 1965). Histological evaluation was performed by two investigators in a blind manner.
Type I and II collagen immunostaining was performed as described in Tsuji K. et al, Cell Transplant., 2017, 26(6), pp. 1089 to 1102. That is, sections were subjected to deparaffinization with xylene (Wako Pure Chemical Industries, Tokyo, Japan), rehydrated stepwise with alcohol, and saturated with phosphate buffered saline (PBS). For type II collagen staining, the samples were pretreated with 50 mM Tris-HCl buffer (Wako Pure Chemical Industries) containing 0.4 mg/ml Proteinase K (Dako, Agilent Technologies, Santa Clara, Calif., USA) for 10 min. For type I collagen staining, no digestion with Proteinase K was performed.
Next, the cells were treated with methanol containing 0.3% hydrogen peroxide for 30 minutes to suppress the activity of endogenous peroxidase. As primary antibodies, anti-type I collagen antibody (1:200 dilution; Abcam cat. #ab34712, Cambridge, UK) or anti-type II collagen antibody (1:1000 dilution; Abcam […], Cambridge, UK) were added to the sections and incubated at 4° C. overnight. Then, the sections were rinsed with 0.1% PBS-Triton X-100 (MP Biomedicals Inc., Solon, Ohio, USA) and incubated with secondary antibodies diluted 1:200 [Biotinylated goat-derived anti-rabbit immunoglobulin G (IgG), Vector Laboratories, Burlingame, Calif., USA]. Then, the sections were rinsed, the signals were visualized with Vectastain ABC Reagent (Vector Laboratories), and diaminobenzidine staining (DAB, Vector Laboratories) was applied. In addition, the sections were contrast stained with hematoxylin (Muto Pure Chemicals, Tokyo, Japan).

[3] = tested on: rat model of total articular cartilage loss; assay: Full thickness articular cartilage defect model; assay type: in vivo; conditions: 4 weeks after the defect, FIG. 8
Method: Next, in order to verify the regeneration of damaged articular cartilage and the suppression of degenerative degeneration, a model of full thickness articular cartilage defect was prepared to examine the effects of rh Activin A administration. Specifically, a 1.4 mmφ total articular cartilage loss was prepared in the femoral intercondylar region using an airtome, and 180 ng of Activin A (rh Activin A) was injected intra-articularly 1 week later.

[4] = tested on: rat meniscus damage model; conditions: intra-articular administration; cited from earlier work

| Molecule | effect of inhibitor on pro-proliferative activity of Activin A / cell count (MTT assay) (synovial MSCs [1]) | proliferation activation of MSCs (MTT assay) (synovial MSCs [1]) | further results |
| --- | --- | --- | --- |
| COc1cccc(-c2cc(=O)c3ccccc3o2)c1N [PD98059, reference compound] | further reduced | – | – |
| PDGF | – | – | formation of chondrocyte aggregates (wet weight) (synovial MSCs [2]): effect of promoting the formation of chondrocyte aggregates; vascular invasion in the regenerated region (C57BL/6J mice): observed; chondrogenic differentiation of the formed tissue [3]: no significant promotion effect; formation of fibrocartilage-like tissue in the articular cartilage defect site ([3]; intra-articular 1 week after defect (rh Activin A 180 ng/knee, rrPDGF-AA 900 ng/knee), vs PBS): promote the formation of fibrocartilage-like tissue |
| IL8: recombinant human IL8 protein | – | no proliferation activation of MSCs was observed | – |
| O=c1[nH]c2ccccc2n1C1CCN(Cc2ccc(-c3nc4cc5[nH]cnc5cc4nc3-c3ccccc3)cc2)CC1 [Akt1/2, reference compound] | completely eliminated | – | – |
| IL6: recombinant human IL6 protein | – | no proliferation activation of MSCs was observed | – |
| COc1ccc(-c2ccc3c(N4CCOCC4)nc(N4C[C@@H](C)O[C@@H](C)C4)nc3n2)cc1CO [KU0063794, reference compound] | completely eliminated | – | – |
| IL10: recombinant IL10 protein (protein, UniProt P22301 19-178, looked up) Interleukin-10: SPGQGTQSENSCTHFPGNLPNMLRDLRDAFSRVKTFFQMKDQLDNLLLKESLLEDFKGYLGCQALSEMIQFYLEEVMPQAENQDPDIKAHVNSLGENLKTLRLRLRRCHRFLPCENKSKAVEQVKNAFNKLQEKGIYKAMSEFDIFINYIEAYMTMKIRN | – | no proliferation activation of MSCs was observed | – |
| FGF18: FGF18 given by intra-articular administration (protein, UniProt O76093 28-207, looked up) Fibroblast growth factor 18: EENVDFRIHVENQTRARDDVSRKQLRLYQLYSRTSGKHIQVLGRRISARGEDGDKYAQLLVETDTFGSQVRIKGKETEFYLCMNRKGKLVGKPDGTSKECVFIEKVLENNYTALMSAKYSGWYVGFTKKGRPRKGPKTRENQQDVHFMKRYPKGQPELQKPFKYTTVTKRSRRIRPTHPA | – | – | articular cartilage degeneration and cartilage thickness at the tibial plateau [4]: suppress articular cartilage degeneration and increase cartilage thickness at the tibial plateau |
